Assay results taken from patent US20130212744A1, “METHOD OF REDUCING INSECT-VECTORED VIRAL INFECTIONS” (priority 2010, published 2013).
Where two headings read alike, the source gives them in different places.

Columns and labels:
Assay type in all cases: in vivo
[1] = tested on: whitefly Bemisia tabaci nymphs; assay: Foliar use field trial on tomato, efficacy on whitefly nymphs; details: Bemisia tabaci, foliar
Experimental: (§1) Two studies were carried out in Elhasanya, Egypt in 2009 on tomato plants of the variety Fayrouz with the main goal to measure efficacy on the whitefly Bemisia tabaci. The plot size was 4.8 m^2 and 6 replicates were used in the trial. Products were applied 3 times on young tomato plants at BBCH stages 14, 17 and 51 at spray intervals between 12 and 19 days. The spray volume was at the first application 350 l/ha and later 500 l/ha. The evaluation of this study was done counting the adult whiteflies (Bemisia tabaci) as well as the nymphs and the eggs in each plot. In addition to the direct whitefly effect, visual symptoms of the virus, mainly TYLCV (tomato yellow leaf curl virus) were evaluated also.
(§2) ASM=Acibenzolar-S-methyl. WG 50=Actigard® 50WG, a water-dispersible granule with the active ingredient ASM CYNT=Cyantraniliprole. WG 40=Cyazypyr®, a water dispersable granule with the active ingredient CYNT. Results on whitefly adults. Trial 1

[2] = tested on: whitefly Bemisia tabaci adults; assay: Foliar use field trial on tomato, efficacy on whitefly adults; details: Bemisia tabaci, foliar
Experimental: as §1, §2

[3] = tested on: whitefly Bemisia tabaci adults; assay: Soil use (drench) field trial on tomato, efficacy on whitefly adults; details: for Emax at 12.5 g/ha: 12.5 g ai/ha; for Emax at 25 g/ha: 25 g ai/ha
Experimental: as §1, with “Two soil applied” for “Two”, “plants” for “plants of the variety Fayrouz”, “once” for “3 times”, “stage 14 as a drench.” for “stages 14, 17 and 51 at spray intervals between 12 and 19 days.”, “350” for “350 l/ha and later 500”

[4] = tested on: TYLCV (tomato yellow leaf curl virus); assay: Foliar use field trial on tomato, infected leaf area by TYLC virus
Experimental: as §1, §2
Evaluation of percentage of infected leaf area by TYLC virus (average of 45 plants evaluated per treatment) Trial 1

## CSC(=O)c1cccc2nnsc12 [ASM, S-methyl benzo[1,2,3]thiadiazole-7-carbothioate]
[1]; 12.5 g ai/hl, 5DAA2, Trial 1, read-out: % Efficacy on Nymphs
  Emax: 5%
[1]; 12.5 g ai/hl, 5DAA2, Trial 2, read-out: % Efficacy on Nymphs
  Emax: 5%
[1]; 12.5 g ai/hl, 5DAA3, Trial 1, read-out: % Efficacy on Nymphs
  Emax: 62%
[1]; 12.5 g ai/hl, 5DAA3, Trial 2, read-out: % Efficacy on Nymphs
  Emax: 62%
[1]; 12.5 g ai/hl, 10DAA2, Trial 1, read-out: % Efficacy on Nymphs
  Emax: 52%
[1]; 12.5 g ai/hl, 10DAA2, Trial 2, read-out: % Efficacy on Nymphs
  Emax: 52%
[1]; 12.5 g ai/hl, 10DAA3, Trial 1, read-out: % Efficacy on Nymphs
  Emax: 46%
[1]; 12.5 g ai/hl, 10DAA3, Trial 2, read-out: % Efficacy on Nymphs
  Emax: 46%
[1]; 12.5 g ai/hl, 15DAA3, Trial 1, read-out: % Efficacy on Nymphs
  Emax: 42%
[1]; 12.5 g ai/hl, 15DAA3, Trial 2, read-out: % Efficacy on Nymphs
  Emax: 42%
[1]; 12.5 g ai/hl, 20DAA3, Trial 1, read-out: % Efficacy on Nymphs
  Emax: 27%
[1]; 12.5 g ai/hl, 20DAA3, Trial 2, read-out: % Efficacy on Nymphs
  Emax: 27%
[1]; 12.5 g ai/hl, Avg, Trial 1, read-out: % Efficacy on Nymphs Avg % C
  Emax: 39%
[1]; 25 g ai/hl, 5DAA2, Trial 1, read-out: % Efficacy on Nymphs
  Emax: 57%
[1]; 25 g ai/hl, 5DAA2, Trial 2, read-out: % Efficacy on Nymphs
  Emax: 57%
[1]; 25 g ai/hl, 5DAA3, Trial 1, read-out: % Efficacy on Nymphs
  Emax: 66%
[1]; 25 g ai/hl, 5DAA3, Trial 2, read-out: % Efficacy on Nymphs
  Emax: 66%
[1]; 25 g ai/hl, 10DAA2, Trial 1, read-out: % Efficacy on Nymphs
  Emax: 65%
[1]; 25 g ai/hl, 10DAA2, Trial 2, read-out: % Efficacy on Nymphs
  Emax: 65%
[1]; 25 g ai/hl, 10DAA3, Trial 1, read-out: % Efficacy on Nymphs
  Emax: 53%
[1]; 25 g ai/hl, 10DAA3, Trial 2, read-out: % Efficacy on Nymphs
  Emax: 53%
[1]; 25 g ai/hl, 15DAA3, Trial 1, read-out: % Efficacy on Nymphs
  Emax: 55%
[1]; 25 g ai/hl, 15DAA3, Trial 2, read-out: % Efficacy on Nymphs
  Emax: 55%
[1]; 25 g ai/hl, 20DAA3, Trial 1, read-out: % Efficacy on Nymphs
  Emax: 39%
[1]; 25 g ai/hl, 20DAA3, Trial 2, read-out: % Efficacy on Nymphs
  Emax: 39%
[1]; 25 g ai/hl, Avg, Trial 1, read-out: % Efficacy on Nymphs Avg % C
  Emax: 56%
[2]; 12.5 g ai/hl, 5DAA1, Trial 1, read-out: % Efficacy on Adults
  Emax: 53%
[2]; 12.5 g ai/hl, 5DAA1, Trial 2, read-out: % Efficacy on Adults
  Emax: 53%
[2]; 12.5 g ai/hl, 5DAA2, Trial 1, read-out: % Efficacy on Adults
  Emax: 45%
[2]; 12.5 g ai/hl, 5DAA2, Trial 2, read-out: % Efficacy on Adults
  Emax: 45%
[2]; 12.5 g ai/hl, 5DAA3, Trial 1, read-out: % Efficacy on Adults
  Emax: 55%
[2]; 12.5 g ai/hl, 5DAA3, Trial 2, read-out: % Efficacy on Adults
  Emax: 55%
[2]; 12.5 g ai/hl, 10DAA1, Trial 1, read-out: % Efficacy on Adults
  Emax: 43%
[2]; 12.5 g ai/hl, 10DAA1, Trial 2, read-out: % Efficacy on Adults
  Emax: 43%
[2]; 12.5 g ai/hl, 10DAA2, Trial 1, read-out: % Efficacy on Adults
  Emax: 37%
[2]; 12.5 g ai/hl, 10DAA2, Trial 2, read-out: % Efficacy on Adults
  Emax: 37%
[2]; 12.5 g ai/hl, 10DAA3, Trial 1, read-out: % Efficacy on Adults
  Emax: 46%
[2]; 12.5 g ai/hl, 10DAA3, Trial 2, read-out: % Efficacy on Adults
  Emax: 46%
[2]; 12.5 g ai/hl, 15DAA3, Trial 1, read-out: % Efficacy on Adults
  Emax: 38%
[2]; 12.5 g ai/hl, 15DAA3, Trial 2, read-out: % Efficacy on Adults
  Emax: 38%
[2]; 12.5 g ai/hl, 20DAA3, Trial 1, read-out: % Efficacy on Adults
  Emax: 12%
[2]; 12.5 g ai/hl, 20DAA3, Trial 2, read-out: % Efficacy on Adults
  Emax: 12%
[2]; 12.5 g ai/hl, Avg, Trial 1, read-out: % Efficacy on Adults Avg % C
  Emax: 41%
[2]; 25 g ai/hl, 5DAA1, Trial 1, read-out: % Efficacy on Adults
  Emax: 59%
[2]; 25 g ai/hl, 5DAA1, Trial 2, read-out: % Efficacy on Adults
  Emax: 59%
[2]; 25 g ai/hl, 5DAA2, Trial 1, read-out: % Efficacy on Adults
  Emax: 52%
[2]; 25 g ai/hl, 5DAA2, Trial 2, read-out: % Efficacy on Adults
  Emax: 52%
[2]; 25 g ai/hl, 5DAA3, Trial 1, read-out: % Efficacy on Adults
  Emax: 57%
[2]; 25 g ai/hl, 5DAA3, Trial 2, read-out: % Efficacy on Adults
  Emax: 57%
[2]; 25 g ai/hl, 10DAA1, Trial 1, read-out: % Efficacy on Adults
  Emax: 43%
[2]; 25 g ai/hl, 10DAA1, Trial 2, read-out: % Efficacy on Adults
  Emax: 43%
[2]; 25 g ai/hl, 10DAA2, Trial 1, read-out: % Efficacy on Adults
  Emax: 39%
[2]; 25 g ai/hl, 10DAA2, Trial 2, read-out: % Efficacy on Adults
  Emax: 39%
[2]; 25 g ai/hl, 10DAA3, Trial 1, read-out: % Efficacy on Adults
  Emax: 49%
[2]; 25 g ai/hl, 10DAA3, Trial 2, read-out: % Efficacy on Adults
  Emax: 49%
[2]; 25 g ai/hl, 15DAA3, Trial 1, read-out: % Efficacy on Adults
  Emax: 40%
[2]; 25 g ai/hl, 15DAA3, Trial 2, read-out: % Efficacy on Adults
  Emax: 40%
[2]; 25 g ai/hl, 20DAA3, Trial 1, read-out: % Efficacy on Adults
  Emax: 22%
[2]; 25 g ai/hl, 20DAA3, Trial 2, read-out: % Efficacy on Adults
  Emax: 22%
[2]; 25 g ai/hl, Avg, Trial 1, read-out: % Efficacy on Adults Avg % C
  Emax: 45%
[3]; 120 h, 5DAA, Trial 1
  Emax at 12.5 g/ha: 40%
  Emax at 25 g/ha: 50%
[3]; 120 h, 5DAA, Trial 2
  Emax at 12.5 g/ha: 29%
  Emax at 25 g/ha: 36%
[3]; 240 h, 10DAA, Trial 1
  Emax at 12.5 g/ha: 41%
  Emax at 25 g/ha: 44%
[3]; 240 h, 10DAA, Trial 2
  Emax at 12.5 g/ha: 34%
  Emax at 25 g/ha: 45%
[3]; 360 h, 15DAA, Trial 1
  Emax at 12.5 g/ha: 58%
  Emax at 25 g/ha: 64%
[3]; 360 h, 15DAA, Trial 2
  Emax at 12.5 g/ha: 35%
  Emax at 25 g/ha: 45%
[3]; 480 h, 20DAA, Trial 1
  Emax at 12.5 g/ha: 39%
  Emax at 25 g/ha: 42%
[3]; 480 h, 20DAA, Trial 2
  Emax at 12.5 g/ha: 31%
  Emax at 25 g/ha: 43%
[3]; 600 h, 25DAA, Trial 1
  Emax at 12.5 g/ha: 29%
  Emax at 25 g/ha: 31%
[3]; 600 h, 25DAA, Trial 2
  Emax at 12.5 g/ha: 25%
  Emax at 25 g/ha: 35%
[3]; 720 h, 30DAA, Trial 1
  Emax at 12.5 g/ha: 22%
  Emax at 25 g/ha: 26%
[3]; 720 h, 30DAA, Trial 2
  Emax at 12.5 g/ha: 19%
  Emax at 25 g/ha: 30%
[3]; 840 h, 35DAA, Trial 1
  Emax at 12.5 g/ha: 14%
  Emax at 25 g/ha: 26%
[3]; 840 h, 35DAA, Trial 2
  Emax at 12.5 g/ha: 12%
  Emax at 25 g/ha: 23%
[3]; 960 h, 40DAA, Trial 1
  Emax at 12.5 g/ha: 5%
  Emax at 25 g/ha: 5%
[3]; 960 h, 40DAA, Trial 2
  Emax at 12.5 g/ha: 9%
  Emax at 25 g/ha: 10%
[4]; 12.5 g ai/hl, 5DAA2, Trial 1
  % Infected Surface area with virus / plant: 0.0%
[4]; 12.5 g ai/hl, 5DAA2, Trial 2
  % Infected Surface area with virus / plant: 0.0%
[4]; 12.5 g ai/hl, 5DAA3, Trial 1
  % Infected Surface area with virus / plant: 1.0%
[4]; 12.5 g ai/hl, 5DAA3, Trial 2
  % Infected Surface area with virus / plant: 1.0%
[4]; 12.5 g ai/hl, 10DAA3, Trial 1
  % Infected Surface area with virus / plant: 9.6%
[4]; 12.5 g ai/hl, 10DAA3, Trial 2
  % Infected Surface area with virus / plant: 9.6%
[4]; 12.5 g ai/hl, 15DAA3, Trial 1
  % Infected Surface area with virus / plant: 9.9%
[4]; 12.5 g ai/hl, 15DAA3, Trial 2
  % Infected Surface area with virus / plant: 9.9%
[4]; 12.5 g ai/hl, 20DAA3, Trial 1
  % Infected Surface area with virus / plant: 10.7%
[4]; 12.5 g ai/hl, 20DAA3, Trial 2
  % Infected Surface area with virus / plant: 10.7%
[4]; 12.5 g ai/hl, 24DAA3, Trial 1
  % Infected Surface area with virus / plant: 14.4%
[4]; 12.5 g ai/hl, 24DAA3, Trial 2
  % Infected Surface area with virus / plant: 14.4%
[4]; 25 g ai/hl, 5DAA2, Trial 1
  % Infected Surface area with virus / plant: 0.0%
[4]; 25 g ai/hl, 5DAA2, Trial 2
  % Infected Surface area with virus / plant: 0.0%
[4]; 25 g ai/hl, 5DAA3, Trial 1
  % Infected Surface area with virus / plant: 0.0%
[4]; 25 g ai/hl, 5DAA3, Trial 2
  % Infected Surface area with virus / plant: 0.0%
[4]; 25 g ai/hl, 10DAA3, Trial 1
  % Infected Surface area with virus / plant: 3.3%
[4]; 25 g ai/hl, 10DAA3, Trial 2
  % Infected Surface area with virus / plant: 3.3%
[4]; 25 g ai/hl, 15DAA3, Trial 1
  % Infected Surface area with virus / plant: 4.7%
[4]; 25 g ai/hl, 15DAA3, Trial 2
  % Infected Surface area with virus / plant: 4.7%
[4]; 25 g ai/hl, 20DAA3, Trial 1
  % Infected Surface area with virus / plant: 5.0%
[4]; 25 g ai/hl, 20DAA3, Trial 2
  % Infected Surface area with virus / plant: 5.0%
[4]; 25 g ai/hl, 24DAA3, Trial 1
  % Infected Surface area with virus / plant: 7.2%
[4]; 25 g ai/hl, 24DAA3, Trial 2
  % Infected Surface area with virus / plant: 7.2%
